# Measured values taken from US20170000133A1, “BENZOXABOROLE FUNGICIDES” (SYNGENTA PARTICIPATIONS AG, priority 2013, published 2017).
# Test system: Pythium ultimum
# Test: Pythium ultimum / liquid culture (seedling damping off)
# Type: cell-based
# Conditions: Globisporangium ultimum, read-out: disease control (inhibition of growth determined photometrically)
row,SMILES,inhibition at 200 ppm [%]
1,COP(=O)(CCOC(=O)c1cc2c(cc1Cl)COB2O)OC [Compound 228],≥ 80
2,COP(=O)(CCOC(=O)c1cc2c(cc1F)COB2O)OC [Compound 416],≥ 80

# Same assay, conditions: Globisporangium ultimum; 200 ppm; potato dextrose broth, 24° C., 2-3 days after application; read-out: disease control (inhibition of growth determined photometrically)
row,SMILES,inhibition at 200 ppm [%]
1,O=C(NCc1ccc(Cl)nc1)c1cc2c(cc1Cl)COB2O [Compound 105],≥ 80
2,O=C(Nc1ccccc1Cl)c1cc2c(cc1Cl)COB2O [Compound 108],≥ 80
3,O=C(NCCC(F)(F)F)c1cc2c(cc1F)COB2O [Compound 72],≥ 80
4,C#CC1(NC(=O)c2ccc3c(c2)B(O)OC3)CCCCC1 [Compound 254],≥ 80
5,O=C(Nc1cccc(F)c1)c1cc2c(cc1Cl)COB2O [Compound 120],≥ 80
6,Cc1cccc(Cl)c1NC(=O)c1ccc2c(c1)B(O)OC2 [Compound 281],≥ 80
7,Cc1onc(-c2ccccc2)c1NC(=O)c1cc2c(cc1Cl)COB2O [Compound 156],≥ 80
8,O=C(NC1CCSC1=O)c1cc2c(cc1Cl)COB2O (centres unmarked) [Compound 55],≥ 80
9,O=C(NCc1ccc2c(c1)OCCO2)c1ccc2c(c1)B(O)OC2 [Compound 269],≥ 80
10,O=C(NCc1ccc(-n2cccn2)cc1)c1ccc2c(c1)B(O)OC2 [Compound 272],≥ 80
11,Cc1cc(C)c2c(NC(=O)c3ccc4c(c3)B(O)OC4)[nH]nc2n1 [Compound 309],≥ 80
12,Cc1csc(NC(=O)c2cc3c(cc2F)COB3O)n1 [Compound 176],≥ 80
13,O=C(OCCCC(=O)N1CCCC1)c1cc2c(cc1Cl)COB2O [Compound 220],≥ 80
14,O=C(OC1COC1)c1ccc2c(c1)B(O)OC2 [Compound 363],≥ 80
15,O=C(NCCC(F)(F)F)c1ccc2c(c1)B(O)OC2 [Compound 246],≥ 80
16,O=C(NCCOc1ccccc1)c1cc2c(cc1F)COB2O [Compound 117],≥ 80
17,COCCOCCOCCOC(=O)c1cc2c(cc1F)COB2O [Compound 432],≥ 80
18,O=C(OCC1CCCO1)c1cc2c(cc1Cl)COB2O (centres unmarked) [Compound 212],≥ 80
19,CSc1nc(NC(=O)c2cc3c(cc2F)COB3O)n[nH]1 [Compound 177],≥ 80
20,CS(=O)(=O)CCOC(=O)c1cc2c(cc1F)COB2O [Compound 421],≥ 80
21,O=C(OCCCC(=O)N1CCCC1)c1ccc2c(c1)B(O)OC2 [Compound 346],≥ 80
22,O=C(Nc1cccc2ncccc12)c1cc2c(cc1F)COB2O [Compound 152],≥ 80
23,CSCCNC(=O)c1cc2c(cc1Cl)COB2O [Compound 101],≥ 80

row,SMILES,inhibition at 200 ppm [%]
1,O=C(OC1CCOCC1)c1cc2c(cc1F)COB2O [Compound 428],≥ 80
2,CSCCNC(=O)c1cc2c(cc1F)COB2O [Compound 134],≥ 80
3,O=C(NCCc1c[nH]c2ccccc12)c1ccc2c(c1)B(O)OC2 [Compound 274],≥ 80
4,O=C(NCCc1ccc2c(c1)OCO2)c1cc2c(cc1F)COB2O [Compound 82],≥ 80
5,Cc1cccnc1NC(=O)c1cc2c(cc1Cl)COB2O [Compound 151],≥ 80
6,Cc1cc(O)nc(NC(=O)c2cc3c(cc2Cl)COB3O)n1 [Compound 153],≥ 80
7,O=C(NCCC1OCCO1)c1cc2c(cc1F)COB2O [Compound 92],≥ 80
8,O=C(NCCN1CCN(Cc2ccccc2)CC1)c1ccc2c(c1)B(O)OC2 [Compound 278],≥ 80
9,O=C(NCCOc1ccccc1)c1cc2c(cc1Cl)COB2O [Compound 83],≥ 80
10,O=C(NCC1CCCO1)c1cc2c(cc1Cl)COB2O (centres unmarked) [Compound 64],≥ 80
11,O=C(NCC1(O)CCCCC1)c1ccc2c(c1)B(O)OC2 [Compound 247],≥ 80
12,CS(=O)(=O)c1ccc(CNC(=O)c2cc3c(cc2F)COB3O)cc1 [Compound 86],≥ 80
13,C#CC1(NC(=O)c2cc3c(cc2Cl)COB3O)CCCCC1 [Compound 62],≥ 80
14,O=C(NCc1ccccc1)c1cc2c(cc1Cl)COB2O [Compound 71],≥ 80
15,Cc1cc(NC(=O)c2cc3c(cc2F)COB3O)n(C)n1 [Compound 175],≥ 80
16,O=C(Nc1ccc(S(=O)(=O)Nc2ccccn2)cc1)c1ccc2c(c1)B(O)OC2 [Compound 296],≥ 80
17,O=C(NC1CCSC1=O)c1cc2c(cc1F)COB2O (centres unmarked) [Compound 76],≥ 80
18,Cc1nnc(NC(=O)c2cc3c(cc2Cl)COB3O)s1 [Compound 164],≥ 80
19,COC(=O)c1cc2cc(NC(=O)c3ccc4c(c3)B(O)OC4)ccc2s1 [Compound 288],≥ 80
20,O=C(Nc1cc(-c2ccccc2)[nH]n1)c1ccc2c(c1)B(O)OC2 [Compound 303],≥ 80
21,O=C(Nc1ccc(-n2cccc2)cc1)c1cc2c(cc1F)COB2O [Compound 159],≥ 80
22,O=C(Nc1ccccc1N1CCOCC1)c1ccc2c(c1)B(O)OC2 [Compound 293],≥ 80
23,Cc1nnc(NC(=O)c2ccc3c(c2)B(O)OC3)s1 [Compound 305],≥ 80

row,SMILES,inhibition at 200 ppm [%]
1,O=C(Nc1ccccc1-c1cc2ccccc2[nH]1)c1cc2c(cc1Cl)COB2O [Compound 135],≥ 80
2,O=C(NCc1ccc(-n2cccn2)cc1)c1cc2c(cc1F)COB2O [Compound 126],≥ 80
3,O=C(NCC1(O)CCCCC1)c1cc2c(cc1F)COB2O [Compound 74],≥ 80
4,O=C(NCCc1cccs1)c1cc2c(cc1F)COB2O [Compound 115],≥ 80
5,COc1ccc(CNC(=O)c2cc3c(cc2Cl)COB3O)cc1 [Compound 91],≥ 80
6,O=C(NCc1ccc(-n2cccn2)cc1)c1cc2c(cc1Cl)COB2O [Compound 93],≥ 80
7,CC(CN1CCOCC1)OC(=O)c1ccc2c(c1)B(O)OC2 (centres unmarked) [Compound 322],≥ 80
8,Cc1cc(O)nc(NC(=O)c2cc3c(cc2F)COB3O)n1 [Compound 178],≥ 80
9,O=C(NCCc1ccc2c(c1)OCO2)c1cc2c(cc1Cl)COB2O [Compound 58],≥ 80
10,CC(NC(=O)c1cc2c(cc1Cl)COB2O)c1ccccc1 (centres unmarked) [Compound 75],≥ 80
11,O=C(Nc1ccc2ncsc2c1)c1cc2c(cc1F)COB2O [Compound 166],≥ 80
12,Cc1cc(O)nc(NC(=O)c2ccc3c(c2)B(O)OC3)n1 [Compound 299],≥ 80
13,O=C(NCc1cccnc1)c1ccc2c(c1)B(O)OC2 [Compound 259],≥ 80
14,O=C(NCc1ccc(Cl)nc1)c1ccc2c(c1)B(O)OC2 [Compound 276],≥ 80
15,O=C(NCCc1c[nH]c2ccccc12)c1cc2c(cc1F)COB2O [Compound 130],≥ 80
16,Cc1cc(=O)oc2cc(NC(=O)c3cc4c(cc3F)COB4O)ccc12 [Compound 172],≥ 80
17,O=C(Nc1cc(-c2ccccc2)[nH]n1)c1cc2c(cc1Cl)COB2O [Compound 160],≥ 80
18,O=C(Nc1ccc(-n2cccc2)cc1)c1ccc2c(c1)B(O)OC2 [Compound 287],≥ 80
19,CN(C)S(=O)(=O)c1ccc(NC(=O)c2cc3c(cc2F)COB3O)cc1 [Compound 173],≥ 80
20,CN(C)S(=O)(=O)c1ccc(NC(=O)c2ccc3c(c2)B(O)OC3)cc1 [Compound 295],≥ 80
21,O=C(OC1COC1)c1cc2c(cc1Cl)COB2O [Compound 234],≥ 80
22,O=C(Nc1ccc2ccccc2n1)c1ccc2c(c1)B(O)OC2 [Compound 300],≥ 80
23,COc1ccc(NC(=O)c2cc3c(cc2Cl)COB3O)c(OC)c1 [Compound 118],≥ 80

row,SMILES,inhibition at 200 ppm [%]
1,CS(=O)(=O)CCOC(=O)c1ccc2c(c1)B(O)OC2 [Compound 358],≥ 80
2,Cn1cc(CCCOC(=O)c2cc3c(cc2Cl)COB3O)cn1 [Compound 219],≥ 80
3,O=C(NCc1ccccc1C(F)(F)F)c1ccc2c(c1)B(O)OC2 [Compound 275],≥ 80
4,O=C(NCCC1OCCO1)c1ccc2c(c1)B(O)OC2 [Compound 255],≥ 80
5,CC(CN1CCOCC1)OC(=O)c1cc2c(cc1F)COB2O (centres unmarked) [Compound 383],≥ 80
6,O=C(NCC1CCCO1)c1ccc2c(c1)B(O)OC2 (centres unmarked) [Compound 256],≥ 80
7,O=C(NCCc1ccccc1)c1cc2c(cc1F)COB2O [Compound 111],≥ 80
8,O=C(OC1CCOC1)c1cc2c(cc1F)COB2O (centres unmarked) [Compound 426],≥ 80
9,O=C(NCCC(F)(F)F)c1cc2c(cc1Cl)COB2O [Compound 54],≥ 80
10,Cc1onc(-c2ccccc2)c1NC(=O)c1ccc2c(c1)B(O)OC2 [Compound 301],≥ 80
11,CCOC(=O)C1CC=CCC1NC(=O)c1ccc2c(c1)B(O)OC2 (centres unmarked) [Compound 248],≥ 80
12,CC(NC(=O)c1ccc2c(c1)B(O)OC2)c1ccccc1 (centres unmarked) [Compound 263],≥ 80
13,O=C(NCC(O)c1ccc(O)cc1)c1ccc2c(c1)B(O)OC2 (centres unmarked) [Compound 249],≥ 80
14,O=C(NCc1ccccn1)c1ccc2c(c1)B(O)OC2 [Compound 52],≥ 80
15,O=C(NCCCCl)c1cc2c(cc1F)COB2O [Compound 70],≥ 80
16,COCCOCCOCCOC(=O)c1cc2c(cc1Cl)COB2O [Compound 239],≥ 80
17,O=C(OC1CCOC1)c1cc2c(cc1Cl)COB2O (centres unmarked) [Compound 235],≥ 80
18,O=C(OCCCC(=O)N1CCCC1)c1cc2c(cc1F)COB2O [Compound 408],≥ 80
19,O=C(NCCc1cccs1)c1cc2c(cc1Cl)COB2O [Compound 81],≥ 80
20,Cc1onc(-c2ccccc2)c1NC(=O)c1cc2c(cc1F)COB2O [Compound 180],≥ 80
21,CSc1nc(NC(=O)c2cc3c(cc2Cl)COB3O)n[nH]1 [Compound 149],≥ 80
